Experimental data taken from patent US12522601B2, “1,3,4-oxadiazole derivative compounds as histone deacetylase 6 inhibitor, and the pharmaceutical composition comprising the same” (CHONG KUN DANG PHARMACEUTICAL CORP., priority 2020, dated 2026).

Assays:
human recombinant HDAC1 = target: T1, human recombinant HDAC1 (Homo sapiens, UniProt Q13547); assay: In vitro HDAC enzyme activity inhibition assay, HDAC1 (HDAC Fluorimetric Drug Discovery Kit); type: biochemical; settings: human recombinant HDAC1, Fluor de Lys-SIRT1 substrate 10 μM, 30° C. for 60 minutes
T1 construct: purchased Enzo Life Sciences, Inc. BML-SE456
Summary of the method: (§1)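 Fluorimetric deacetylase kit; 0.3 μg human recombinant enzyme with 10 μM Fluor de Lys-SIRT1 substrate, 60 min at 30° C, then developer 30 min. Fluorescence read at Ex 360/Em 460; IC50 from 5-fold compound dilutions. HDAC1 and HDAC6 run by the same protocol.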

human recombinant HDAC6 = target: T2, human recombinant HDAC6 (Homo sapiens, UniProt Q9UBN7); assay: In vitro HDAC enzyme activity inhibition assay, HDAC6 (HDAC Fluorimetric Drug Discovery Kit); type: biochemical; settings: for HDAC6 Selectivity (fold): HDAC6 versus HDAC1; for IC50: human recombinant HDAC6, same protocol as the HDAC1 test
T2 construct: purchased Calbiochem Inc. 382180
T2 sequence (Q9UBN7 1-1215): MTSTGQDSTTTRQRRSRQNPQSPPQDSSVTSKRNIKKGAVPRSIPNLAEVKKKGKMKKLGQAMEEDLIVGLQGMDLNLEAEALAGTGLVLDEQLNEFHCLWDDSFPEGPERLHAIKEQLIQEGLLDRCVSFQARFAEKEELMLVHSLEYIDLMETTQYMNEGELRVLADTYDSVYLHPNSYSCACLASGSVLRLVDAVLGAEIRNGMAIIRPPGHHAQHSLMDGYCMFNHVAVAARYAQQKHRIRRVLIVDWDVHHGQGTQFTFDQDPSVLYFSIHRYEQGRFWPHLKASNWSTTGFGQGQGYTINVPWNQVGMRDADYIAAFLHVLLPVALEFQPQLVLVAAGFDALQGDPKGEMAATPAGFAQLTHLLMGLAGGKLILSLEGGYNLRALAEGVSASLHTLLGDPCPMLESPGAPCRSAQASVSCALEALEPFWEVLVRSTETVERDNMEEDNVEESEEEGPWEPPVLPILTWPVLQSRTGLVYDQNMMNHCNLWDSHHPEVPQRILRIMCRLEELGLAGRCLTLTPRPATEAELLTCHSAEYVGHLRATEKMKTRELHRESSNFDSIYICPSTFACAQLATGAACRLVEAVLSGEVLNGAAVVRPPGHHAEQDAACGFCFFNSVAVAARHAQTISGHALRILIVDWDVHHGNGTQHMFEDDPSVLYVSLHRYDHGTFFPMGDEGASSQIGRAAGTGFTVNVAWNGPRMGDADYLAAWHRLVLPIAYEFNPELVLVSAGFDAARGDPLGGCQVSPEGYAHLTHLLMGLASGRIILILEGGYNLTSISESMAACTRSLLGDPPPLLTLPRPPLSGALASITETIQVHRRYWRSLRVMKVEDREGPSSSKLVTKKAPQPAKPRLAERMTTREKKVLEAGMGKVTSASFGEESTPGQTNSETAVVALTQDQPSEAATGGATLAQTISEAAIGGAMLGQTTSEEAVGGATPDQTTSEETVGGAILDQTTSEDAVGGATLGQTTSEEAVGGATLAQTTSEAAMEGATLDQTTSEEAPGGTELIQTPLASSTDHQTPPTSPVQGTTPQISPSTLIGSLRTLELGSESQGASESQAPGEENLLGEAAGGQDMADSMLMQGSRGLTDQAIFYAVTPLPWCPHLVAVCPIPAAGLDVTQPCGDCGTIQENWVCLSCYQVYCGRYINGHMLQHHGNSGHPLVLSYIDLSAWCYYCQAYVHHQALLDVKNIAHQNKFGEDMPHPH
Summary of the method: as §1

T1 sequence (Q13547 whole entry): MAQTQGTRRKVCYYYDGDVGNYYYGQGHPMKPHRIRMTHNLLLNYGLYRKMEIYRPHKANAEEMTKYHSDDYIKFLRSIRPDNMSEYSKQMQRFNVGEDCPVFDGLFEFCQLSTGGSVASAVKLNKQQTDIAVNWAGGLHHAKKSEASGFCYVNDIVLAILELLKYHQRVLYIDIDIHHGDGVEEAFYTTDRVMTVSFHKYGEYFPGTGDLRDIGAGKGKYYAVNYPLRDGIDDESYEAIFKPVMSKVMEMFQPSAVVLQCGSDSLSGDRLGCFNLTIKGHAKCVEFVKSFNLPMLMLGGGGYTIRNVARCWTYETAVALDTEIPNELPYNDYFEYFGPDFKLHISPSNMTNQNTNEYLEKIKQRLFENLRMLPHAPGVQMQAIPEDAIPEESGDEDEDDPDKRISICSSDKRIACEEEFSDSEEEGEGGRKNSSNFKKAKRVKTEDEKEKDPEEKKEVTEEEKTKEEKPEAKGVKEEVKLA

SMILES | IC50 (human recombinant HDAC1) [nM] | HDAC6 Selectivity (fold) (human recombinant HDAC6) | IC50 (human recombinant HDAC6) [nM]
O=C(N1CCN(C2CCOCC2)CC1)N(Cc1cn2ccc(-c3nnc(C(F)F)o3)cc2n1)c1cccc(F)c1 [Compound 4090, N-((7-(5-(difluoromethyl)-1,3,4-oxadiazol-2-yl)imidazo[1,2-a]pyridin-2-yl)methyl)-N-(3-fluorophenyl)-4-(tetrahydro-2H-pyran-4-yl)piperazine-1-carboxamide] | > 50000 | 216 | 232
O=C(N1CCN(C2CCC(F)(F)CC2)CC1)N(Cc1cn2ccc(-c3nnc(C(F)F)o3)cc2n1)c1cccc(F)c1 [Compound 4091, 4-(4,4-difluorocyclohexyl)-N-((7-(5-(difluoromethyl)-1,3,4-oxadiazol-2-yl)imidazo[1,2-a]pyridin-2-yl)methyl)-N-(3-fluorophenyl)piperazine-1-carboxamide] | > 50000 | 194 | 257
CC(=O)N1CCN(C(=O)N(Cc2cn3ccc(-c4nnc(C(F)F)o4)cc3n2)c2cccc(F)c2)CC1 [Compound 4092, 4-acetyl-N-((7-(5-(difluoromethyl)-1,3,4-oxadiazol-2-yl)imidazo[1,2-a]pyridin-2-yl)methyl)-N-(3-fluorophenyl)piperazine-1-carboxamide] | > 50000 | 187 | 267
CCC(=O)N1CCN(C(=O)N(Cc2cn3ccc(-c4nnc(C(F)F)o4)cc3n2)c2cccc(F)c2)CC1 [Compound 4093, N-((7-(5-(difluoromethyl)-1,3,4-oxadiazol-2-yl)imidazo[1,2-a]pyridin-2-yl)methyl)-N-(3-fluorophenyl)-4-propionylpiperazine-1-carboxamide] | > 50000 | 256 | 195
O=C(CO)N1CCN(C(=O)N(Cc2cn3ccc(-c4nnc(C(F)F)o4)cc3n2)c2cccc(F)c2)CC1 [Compound 4094, N-((7-(5-(difluoromethyl)-1,3,4-oxadiazol-2-yl)imidazo[1,2-a]pyridin-2-yl)methyl)-N-(3-fluorophenyl)-4-(2-hydroxyacetyl)piperazine-1-carboxamide] | > 50000 | 215 | 232
O=C(C1CCC1)N1CCN(C(=O)N(Cc2cn3ccc(-c4nnc(C(F)F)o4)cc3n2)c2cccc(F)c2)CC1 [Compound 4095, 4-(cyclobutanecarbonyl)-N-((7-(5-(difluoromethyl)-1,3,4-oxadiazol-2-yl)imidazo[1,2-a]pyridine-2-yl)methyl)-N-(3-fluorophenyl)piperazine-1-carboxamide] | > 50000 | 185 | 270
O=C(N1CCN(C(=O)C(F)(F)F)CC1)N(Cc1cn2ccc(-c3nnc(C(F)F)o3)cc2n1)c1cccc(F)c1 [Compound 4096, N-((7-(5-(difluoromethyl)-1,3,4-oxadiazol-2-yl)imidazo[1,2-a]pyridin-2-yl)methyl)-N-(3-fluorophenyl)-4-(2,2,2-trifluoroacetyl)piperazine-1-carboxamide] | > 50000 | 121 | 413
CS(=O)(=O)N1CCN(C(=O)N(Cc2cn3ccc(-c4nnc(C(F)F)o4)cc3n2)c2cccc(F)c2)CC1 [Compound 4097, N-((7-(5-(difluoromethyl)-1,3,4-oxadiazol-2-yl)imidazo[1,2-a]pyridin-2-yl)methyl)-N-(3-fluorophenyl)-4-(methylsulfonyl)piperazine-1-carboxamide] | > 50000 | 335 | 149
COC(=O)N1CCN(C(=O)N(Cc2cn3ccc(-c4nnc(C(F)F)o4)cc3n2)c2cccc(F)c2)CC1 [Compound 4098, methyl 4-(((7-(5-(difluoromethyl)-1,3,4-oxadiazol-2-yl)imidazo[1,2-a]pyridin-2-yl)methyl)(3-fluorophenyl)carbamoyl)piperazine-1-carboxylate] | > 50000 | 325 | 154
CN(C)C(=O)N1CCN(C(=O)N(Cc2cn3ccc(-c4nnc(C(F)F)o4)cc3n2)c2cccc(F)c2)CC1 [Compound 4099, N1-((7-(5-(difluoromethyl)-1,3,4-oxadiazol-2-yl)imidazo[1,2-a]pyridin-2-yl)methyl)-N1-(3-fluorophenyl)-N4,N4-dimethylpiperazine-1,4-dicarboxamide] | > 50000 | 360 | 139
O=C(N1CCN(c2ccccn2)CC1)N(Cc1cn2ccc(-c3nnc(C(F)F)o3)cc2n1)c1cccc(F)c1 [Compound 4100, N-((7-(5-(difluoromethyl)-1,3,4-oxadiazol-2-yl)imidazo[1,2-a]pyridin-2-yl)methyl)-N-(3-fluorophenyl)-4-(pyridin-2-yl)piperazine-1-carboxamide] | > 50000 | 107 | 468
O=C(N1CCN(c2ncccn2)CC1)N(Cc1cn2ccc(-c3nnc(C(F)F)o3)cc2n1)c1cccc(F)c1 [Compound 4101, N-((7-(5-(difluoromethyl)-1,3,4-oxadiazol-2-yl)imidazo[1,2-a]pyridin-2-yl)methyl)-N-(3-fluorophenyl)-4-(pyrimidin-2-yl)piperazine-1-carboxamide] | > 50000 | 464 | 108
O=C(C1COC1)N1CCN(C(=O)N(Cc2cn3ccc(-c4nnc(C(F)F)o4)cc3n2)c2ccccc2)CC1 [Compound 4102, N-((7-(5-(difluoromethyl)-1,3,4-oxadiazol-2-yl)imidazo[1,2-a]pyridin-2-yl)methyl)-4-(oxetan-3-carbonyl)-N-phenylpiperazine-1-carboxamide] | > 50000 | 164 | 305
O=C(C1COC1)N1CCN(C(=O)N(Cc2cn3ccc(-c4nnc(C(F)F)o4)cc3n2)c2cccc(F)c2)CC1 [Compound 4103, N-((7-(5-(difluoromethyl)-1,3,4-oxadiazol-2-yl)imidazo[1,2-a]pyridin-2-yl)methyl)-N-(3-fluorophenyl)-4-(oxetan-3-carbonyl)piperazine-1-carboxamide] | > 50000 | 249 | 201
CCN1CCC(C(=O)N(Cc2cn3ccc(-c4nnc(C(F)F)o4)cc3n2)c2ccccc2)CC1 [Compound 4115, N-((7-(5-(difluoromethyl)-1,3,4-oxadiazol-2-yl)imidazo[1,2-a]pyridin-2-yl)methyl)-1-ethyl-N-phenylpiperidine-4-carboxamide] | > 50000 | 141 | 354
CC(C)N1CCC(C(=O)N(Cc2cn3ccc(-c4nnc(C(F)F)o4)cc3n2)c2ccccc2)CC1 [Compound 4116, N-((7-(5-(difluoromethyl)-1,3,4-oxadiazol-2-yl)imidazo[1,2-a]pyridin-2-yl)methyl)-1-isopropyl-N-phenylpiperidine-4-carboxamide] | > 50000 | 159 | 314
CC(CO)N1CCC(C(=O)N(Cc2cn3ccc(-c4nnc(C(F)F)o4)cc3n2)c2ccccc2)CC1 (stereo not drawn) [Compound 4117, N-((7-(5-(difluoromethyl)-1,3,4-oxadiazol-2-yl)imidazo[1,2-a]pyridin-2-yl)methyl)-1-(1-hydroxypropan-2-yl)-N-phenylpiperidine-4-carboxamide] | > 50000 | 133 | 377
O=C(C1CCN(C2CCC2)CC1)N(Cc1cn2ccc(-c3nnc(C(F)F)o3)cc2n1)c1ccccc1 [Compound 4118, 1-cyclobutyl-N-((7-(5-(difluoromethyl)-1,3,4-oxadiazol-2-yl)imidazo[1,2-a]pyridin-2-yl)methyl)-N-phenylpiperidine-4-carboxamide] | > 50000 | 151 | 332
